Experimental data as given in patent US20200268829A1, “METHODS AND COMPOSITIONS FOR INHIBITING METASTASES OF AN ENDOTHELIN B RECEPTOR EXPRESSING CANCER” (ENB Therapeutics, Inc., priority 2020, published 2020).
Entries after “also recorded” stand apart in the source; their conditions may differ.

Experiments:
ETBR = target: T1, ETBR (Homo sapiens, UniProt P24530); assay: ETBR antagonist potency (IC50, Ki); no method given; assay type: binding; conditions: for IC50: for BQ788 printed with 'potent inhibitor of ETBR-related melanoma cell growth'
T1 sequence (P24530 27-442): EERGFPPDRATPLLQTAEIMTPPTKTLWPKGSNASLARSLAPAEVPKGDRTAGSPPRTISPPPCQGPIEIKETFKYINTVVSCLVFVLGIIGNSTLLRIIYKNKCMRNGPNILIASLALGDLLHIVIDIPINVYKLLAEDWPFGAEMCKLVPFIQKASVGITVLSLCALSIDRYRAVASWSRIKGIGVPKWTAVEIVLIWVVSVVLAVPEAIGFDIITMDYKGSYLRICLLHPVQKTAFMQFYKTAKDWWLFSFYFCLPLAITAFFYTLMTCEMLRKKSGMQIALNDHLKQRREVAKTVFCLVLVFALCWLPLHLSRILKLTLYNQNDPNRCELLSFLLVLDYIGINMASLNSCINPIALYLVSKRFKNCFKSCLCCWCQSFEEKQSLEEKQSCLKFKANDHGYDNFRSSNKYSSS

[1] = system: melanoma cell lines overexpressing ETBR (brain metastases); assay: Mouse melanoma brain metastasis model, xenografts of melanoma cell lines overexpressing ETBR; assay type: in vivo, mice; conditions: 60 mg/kg/day
Procedure: FIGS. 5A, 5B, 5C, 5D, and 5E. ETBR antagonist inhibits melanoma brain metastasis in mice. […] In this study, lentiviral vectors were used to overexpress ETBR in melanoma cell lines, which were in turn used to implant xenografts in mice.
A192621 was administered at a dose of 60 mg/kg/day using a mouse melanoma model. […] In this study, lentiviral vectors were used to overexpress ETBR in melanoma cell lines, which were in turn used to implant xenografts in mice. In this study, lentiviral vectors were used to overexpress ETBR in melanoma cell lines, which were in turn used to implant xenografts in mice.

[2] = Body weight under ascending intranasal BQ788 doses over 42 days; assay type: in vivo, athymic nude mice; conditions: BQ788 alone, intranasally in 20% DMSO, ascending doses over 42 days
Procedure: FIG. 9. ETAR antagonist and Niacinamide mitigate weight loss from BQ788. Six week old athymic nude mice were administered the ETBR antagonist BQ788 intranasally in 20% DMSO at the indicated ascending doses over a period of 42 days. One group was additionally administered the ETAR antagonist Macitentan orally at a dose of 5 mg/kg daily. The drinking water of these mice was supplemented with the B vitamin niacinamide at a concentration of 0.3 mg/mL. […] Co-administration of the ETAR antagonist Macitentan with niacinamide supplementation mitigated this weight loss. […] Co-administration of ETAR antagonists and niacinamide with ETBR antagonists mitigated the adverse effects of ETBR antagonists when administered for therapeutic purposes.
Six week old athymic nude mice (n=3 per group) were administered the ETBR antagonist BQ788 intranasally in 20% DMSO at the indicated ascending doses over a period of 42 days. One group was additionally administered the ETAR antagonist Macitentan orally at a dose of 5 mg/kg daily. The drinking water of these mice was supplemented with the B vitamin niacinamide at a concentration of 0.3 mg/mL. […] Co-administration of the ETAR antagonist Macitentan with niacinamide supplementation mitigated this weight loss. […]

[3] = system: SKMEL28 human melanoma cells; assay: SKMEL28 human melanoma xenograft in mice: tumor weight, lung metastases, apoptosis; assay type: in vivo
Procedure: Mice were implanted with 1×10^6 SKMEL28 human melanoma cells. Tumors were established for 10 days until palpable then 120 ng (˜60 ug/kg) BQ788 dissolved in DMSO was injected IP 3×per week×6 weeks. Mice were then sacrificed and lungs harvested and tumors weighed. A 75% reduction in tumor weight was observed.

[4] = system: A375 human melanoma cells; assay: Subcutaneous A375 human melanoma xenograft; assay type: in vivo, Nu/J nude mice; conditions: A375 sc xenograft; Dabrafenib 100 mg/Kg PO daily, alone or with BQ788 600 ng IP TIW; p<0.05
Procedure: FIG. 7. BQ788 synergizes with Dabrafenib in vivo. A375 human melanoma cells were implanted subcutaneously into the rear flank of Nu/J nude mice and allowed to grow to 150 mm3-200 mm3 prior to randomization and initiation of treatment. The mice received the following treatments: (1) vehicle (n=8), (2) Dabrafenib 100 mg/Kg PO daily (n=5), and (3) Dabrafenib+BQ788 600 ng IP TIW (n=5).
A375 human melanoma cells (3×10^6) were implanted subcutaneously into the rear flank of Nu/J nude mice and allowed to grow to 150 mm3-200 mm3 prior to randomization and initiation of treatment. The treatment groups were as follows: (1) vehicle (n=8), Dabrafenib 100 mg/Kg PO daily (n=5), (2) Dabrafenib+BQ788 600 ng IP 3×per week (n=5).

For `CCCOc1ccc([C@H]2[C@H](C(=O)O)[C@@H](c3ccc4c(c3)OCO4)CN2CC(=O)Nc2c(CC)cccc2CC)cc1` [A192621, (2R,3R,4S)-4-(1,3-benzodioxol-5-yl)-1-[2-(2,6-diethylanilino)-2-oxoethyl]-2-(4-propoxyphenyl)pyrrolidine-3-carboxylic acid], the Ki (ETBR) was 8.8 nM, the IC50 (ETBR) was 4.5 nM and the CNS melanoma tumors [1] was “shrinks CNS melanoma tumors”. For the same compound, the brain melanoma metastases [1] was “shrinks brain melanoma metastases” and the survival [1] was “increases survival”.

With `CCCC[C@@H](NC(=O)[C@@H](Cc1cn(C(=O)OC)c2ccccc12)NC(=O)[C@H](CC(C)(C)C)NC(=O)N1[C@H](C)CCC[C@@H]1C)C(=O)O` [BQ788] the Ki (ETBR) was 17.8 nM, the IC50 (ETBR) was 1.2 nM and the “average weight loss relative to baseline body weight by the end of the study” value [2] was 5%. For the same compound, the “reduction in tumor weight” value ([3]; SKMEL28 xenograft mice, 120 ng (~60 ug/kg) BQ788 in DMSO IP 3x per week x 6 weeks) was 75%, the “clearance of lung metastases” value ([3]; SKMEL28 xenograft mice, 120 ng (~60 ug/kg) BQ788 in DMSO IP 3x per week x 6 weeks, vs control mice) was > 95% and the “apoptosis in melanoma tumor cells” value ([3]; melanoma tumor cells) was “induces apoptosis”.

In the case of `CC(C)(C)c1nc(-c2cccc(NS(=O)(=O)c3c(F)cccc3F)c2F)c(-c2ccnc(N)n2)s1` [Dabrafenib], the tumor growth [4] is reported as “retarded the growth of tumors; also recorded: retarded tumor growth”.
